Measured values from US7887794B2, “Lactic acid bacteria and their use in the treatment of cancer” (Bio-K Plus International, Inc., priority 2001, dated 2011).

Legend:
LS 513 cells = test: apoptosis / cell cycle by flow cytometry with propidium iodide; assay type: cell-based, human; conditions: in the presence of intact (live or irradiated) bacteria; dose dependent
Method: A concentration of 5×10^4 cells per mL, with 6 mL per well, is used in order to obtain 3×10^5 cells per sample. The cells are prepared as indicated above. The different products are added to the wells, and an incubation of 48 hours is done. Following the incubation, the supernatants of the cells are collected in different 15 mL tubes and centrifuged at 1500 RPM during 5 minutes. The cellular pellets are then collected by decantation of the supernatant and put on ice. This stage consists in recuperating the cells in suspension. Afterwards, the adherent cellular sheet is washed with 0.5 mL trypsin-EDTA, then 0.2 mL trypsin-EDTA is added to each well to allow the cells to detach when they are incubated for around 8 minutes in the incubator at 37° C. The cells are suspended in 3 mL of complete RPMI 10% FCS to stop the enzymatic activity of trypsin. […] Different peaks are formed due to the differences in fluorescence existing between each phase of the cellular cycle. The more the content of intact DNA is high, the more the fluorescence is high and vice-versa. The program measures the percentage of fluorescence that the large spike forms under the corresponding spike of G0-G1, this spike represents pieces of fragmented DNA, consequence of the cleavage of DNA by different enzymes activated during apoptosis.

human colon cancer = conditions: mice; cited from earlier work
colon cancer cells = test: addition of butyrate, apoptosis of colon cancer cells in vitro; assay type: cell-based, human
Method: The plate of cancer cells containing 3×10^5 cells per well is incubated overnight to allow the cells to adhere. Then, the different concentrations of butyric acid (Sigma, St-Louis, USA) are added to the wells containing the adherent cells and the culture medium, the complete RPMI. After this addition, a 48 hour incubation is done in order to measure the percentage of apoptosis according to the technique described hereinafter.
A dose of 5FU (100 μg/mL) as well as different doses (2 mM and 4 mM) of butyric acid (ba) are added to the cancerous colon cells. Apoptosis is measures after a 48 hour incubation.

Compound | efficacy of the anticancer agent (LS 513 cells) | in vivo growth of human colon cancer (human colon cancer) | apoptosis in colon cancer cells in vitro (colon cancer cells)
O=c1[nH]cc(F)c(=O)[nH]1 [5FU, 5-fluorouracil] | considerably increased | – | –
CCCC(=O)O [butyric acid] | – | inhibits the in vivo growth | causes apoptosis
